Assay [1] relates to TRPV3-6M/V2P (pore domain of rat TRPV2 in TRPV3-6M). In words: Two-electrode voltage clamp, TRPV3-6M/V2P chimera in oocytes. Type of assay: cell-based, mouse. The following applies: RTx 100 nM. As for the experimental part: All channel constructs were expressed in Xenopus laevis oocytes and studied using the two-electrode voltage clamp technique (TEVC) following 1–4 days of incubation after cRNA injection. The animal care and experimental procedures were performed in accordance with the Guide for the Care and Use of Laboratory Animals and were approved by the Animal Care and Use Committee of the National Institute of Neurological Disorders and Stroke (Animal protocol number 1253–17). Oocytes were removed surgically and incubated with agitation for 1 hr in a solution containing (in mM) 82.5 NaCl, 2.5 KCl, 1 MgCl2, 5 HEPES, pH 7.6 (with NaOH), and collagenase (2 mg/ml; Worthington Biochemical, Lakewood, NJ). Defolliculated oocytes were injected with cRNA for each of the constructs and incubated at 17°C in a solution containing (in mM) 96 NaCl, 2 KCl, 1 MgCl2, 1.8 CaCl2, 5 HEPES, pH 7.6 (with NaOH), and gentamicin (50 μg/ml, GIBCO-BRL, Gaithersburg, MD). Oocyte membrane voltage was controlled using an OC-725C oocyte clamp (Warner Instruments, Hamden, CT). Data were filtered at 1–3 kHz and digitized at 20 kHz using pClamp software (Molecular Devices, Sunnyvale, CA) and a Digidata 1440A digitizer (Axon Instruments). Microelectrode resistances were 0.1–1 MΩ when filled with 3 M KCl. For recording TRP channel currents, the external recording solution contained (in mM) 100 KCl, 10 HEPES, pH 7.6 (with KOH). […]
For temperature-activation experiments, calcium-activated chloride currents were minimized by using calcium-free solution containing 30 µM Caccinh-A01 and recording at negative membrane voltages. Heat stimuli were achieved by passing the external recording solution through glass capillary spirals immersed in a water bath maintained at about 70°C, and recordings were performed during constant perfusion with temperature measured using a thermistor (TA-29, Warner Instruments) located close to the cell. […] The mean I vs T relations were calculated by automatically binning each of the recordings in temperature intervals of 2°C, and averaging a single data point within each interval per cell. […]

Assay [2] deals with T1, TRPV3-6M + 5PM (Mus musculus, UniProt Q8K424, A560T/A606V/F522S/F625L/F656I/F666Y/H523E/L557M/Q580E/V587L/W521Y).
T1 construct: expressed in transfected cells; host or cells: Xenopus laevis oocytes
T1 sequence (Q8K424 1-791 W521Y/F522S/H523E/L557M/A560T/Q580E/V587L/A606V/F625L/F656I/F666Y): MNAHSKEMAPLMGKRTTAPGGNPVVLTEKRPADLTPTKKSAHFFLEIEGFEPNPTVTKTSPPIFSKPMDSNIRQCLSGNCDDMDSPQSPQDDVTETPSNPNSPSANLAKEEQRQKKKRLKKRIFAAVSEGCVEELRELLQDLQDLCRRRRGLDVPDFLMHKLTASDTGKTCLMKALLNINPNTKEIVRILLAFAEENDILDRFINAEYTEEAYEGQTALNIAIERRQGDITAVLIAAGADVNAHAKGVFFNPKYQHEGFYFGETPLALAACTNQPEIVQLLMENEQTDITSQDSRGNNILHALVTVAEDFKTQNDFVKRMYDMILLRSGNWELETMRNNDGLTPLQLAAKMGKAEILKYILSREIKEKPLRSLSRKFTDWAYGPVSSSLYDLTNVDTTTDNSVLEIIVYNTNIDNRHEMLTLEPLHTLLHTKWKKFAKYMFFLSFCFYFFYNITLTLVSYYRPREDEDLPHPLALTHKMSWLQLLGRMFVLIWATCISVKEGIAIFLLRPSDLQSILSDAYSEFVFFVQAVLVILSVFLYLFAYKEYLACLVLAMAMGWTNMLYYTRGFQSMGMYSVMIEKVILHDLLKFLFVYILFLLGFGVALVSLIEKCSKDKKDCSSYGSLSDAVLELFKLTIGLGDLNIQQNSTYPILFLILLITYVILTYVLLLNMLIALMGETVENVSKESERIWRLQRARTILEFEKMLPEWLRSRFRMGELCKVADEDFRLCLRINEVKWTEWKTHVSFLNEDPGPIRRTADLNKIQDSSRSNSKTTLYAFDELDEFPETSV
In words: Two-electrode voltage clamp, TRPV3-6M + 5PM in oocytes. Type of assay: cell-based. As for the experimental part: All channel constructs were expressed in Xenopus laevis oocytes and studied using the two-electrode voltage clamp technique (TEVC) following 1–4 days of incubation after cRNA injection. The animal care and experimental procedures were performed in accordance with the Guide for the Care and Use of Laboratory Animals and were approved by the Animal Care and Use Committee of the National Institute of Neurological Disorders and Stroke (Animal protocol number 1253–17). Oocytes were removed surgically and incubated with agitation for 1 hr in a solution containing (in mM) 82.5 NaCl, 2.5 KCl, 1 MgCl2, 5 HEPES, pH 7.6 (with NaOH), and collagenase (2 mg/ml; Worthington Biochemical, Lakewood, NJ). Defolliculated oocytes were injected with cRNA for each of the constructs and incubated at 17°C in a solution containing (in mM) 96 NaCl, 2 KCl, 1 MgCl2, 1.8 CaCl2, 5 HEPES, pH 7.6 (with NaOH), and gentamicin (50 μg/ml, GIBCO-BRL, Gaithersburg, MD). Oocyte membrane voltage was controlled using an OC-725C oocyte clamp (Warner Instruments, Hamden, CT). Data were filtered at 1–3 kHz and digitized at 20 kHz using pClamp software (Molecular Devices, Sunnyvale, CA) and a Digidata 1440A digitizer (Axon Instruments). Microelectrode resistances were 0.1–1 MΩ when filled with 3 M KCl. For recording TRP channel currents, the external recording solution contained (in mM) 100 KCl, 10 HEPES, pH 7.6 (with KOH). Experiments were performed at room temperature (~22°C), except as indicated otherwise. […] Current time courses were obtained by stepping membrane voltage every 2 s from a holding potential of 0 mV to either −60 or +60 mV for 100 ms, and plotting the mean steady-state current at the end of each voltage step as a function of total recording time. I-V relations were obtained similarly, but voltage was stepped every 2 s to a different value, in 10 mV increments and starting at −60 mV.
For orientation: Two-electrode voltage clamp holds a large cell at a set potential and records current.

Take `C=C(C)[C@]12C[C@@H](C)[C@@]34O[C@](Cc5ccccc5)(O[C@@H]1[C@@H]3C=C(COC(=O)Cc1ccc(O)c(OC)c1)C[C@]1(O)C(=O)C(C)=C[C@@H]41)O2` [RTx, resiniferatoxin]: the “channel activation (current response)” value in assay [1] (room temperature, ±60 mV) is on record as “robustly activated”. Also, the “RTx activation on cooling” value in assay [1] (temperature decreased to 10°C) is “reduced to baseline levels”. In addition, in assay [2], the “dissociation of RTx” value is “exceedingly slow”. Also, the “response to RTx compared with maximal response to 2-APB” value in assay [2] (RTx 100 nM, 2-APB 3 mM, +60 mV) is on record as “similar”.

The values above are taken from article PMC6333442, “Conserved allosteric pathways for activation of TRPV3 revealed through engineering vanilloid-sensitivity” (eLife, 2019).
